The subject of this experiment is HIV-1 IIIB. Briefly: HOS HIV-1 infectivity assay. The experiment is classed as cell-based. Conditions: Human immunodeficiency virus 1, IIIB; as determined by the infectivity assay; strain not stated in Table 2; read-out: Activity Level. How it is done: Compounds were profiled against two HIV-1 viruses, the M-tropic (CCR5 utilizing) Ba-L strain and the T-tropic (CXCR4 utilizing) IIIB strain. Both viruses were propagated in human peripheral blood lymphocytes. Compounds were tested for there ability to block infection of the HOS cell line (expressing hCXCR4/hCCR5/hCD4/pHIV-LTR-luciferase) by either HIV-1 Ba-L or HIV-1 IIIB. Compound cytotoxicity was also examined in the absence of virus addition.
HOS cells (expressing hCXCR4/hCCR5/hCD4/pHIV-LTR-luciferase) were harvested and diluted in Dulbeccos modified Eagles media supplemented with 2% FCS and non-essential amino acid to a concentration of 60,000 cells/ml. The cells were plated into 96-well plates (100 ul per well) and the plates were placed in a tissue culture incubator (37° C.; 5% CO2/95% air) for a period of 24 h.
Subsequently, 50 ul of the desired drug solution (4 times the final concentration) was added to each well and the plates were returned to the tissue culture incubator (37° C.; 5% CO2/95% air) for 1 h. Following this incubation 50 ul of diluted virus was added to each well (approximately 2 million RLU per well of virus). The plates were returned to the tissue culture incubator (37° C.; 5% CO2/95% air) and were incubated for a further 96 h.
Following this incubation the endpoint for the virally infected cultures was quantified following addition of Steady-Glo Luciferase assay system reagent (Promega, Madison, Wis.). Cell viability or non-infected cultures was measured using a CellTiter-Glo luminescent cell viability assay system (Promega, Madison, Wis.). All luminescent readouts are performed on a Topcount luminescence detector (Packard, Meridien, Conn.).

Turning to `CN(Cc1nc2ccccc2n1CCc1cn(C)cn1)C1CCCc2cccnc21` (centres unmarked) [Example 72, N-Methyl-N-({1-[2-(1-methyl-1H-imidazol-4-yl)ethyl]-1H-benzimidazol-2-yl}methyl)-5,6,7,8-tetrahydro-8-quinolinamine], the IC50 lay within 500 to 10000 nM.
As for `CC(C)CN(Cc1nc2ccccc2n1C[C@H]1CCCN(C)C1)[C@H]1CCCc2cccnc21` [Example 94, (8S)—N-[(1-{[(3S)-1-Methyl-3-piperidinyl]methyl}-1H-benzimidazol-2-yl)methyl]-N-(2-methylpropyl)-5,6,7,8-tetrahydro-8-quinolinamine], the figure is 100 to 500 nM; as for `CC(C)CCN1CCC[C@H](Cn2c(CN(C)[C@@H]3CCCc4cccnc43)nc3ccccc32)C1` [Example 82, (8R)—N-Methyl-N-[(1-{[(3S)-1-(3-methylbutyl)-3-piperidinyl]methyl}-1H-benzimidazol-2-yl)methyl]-5,6,7,8-tetrahydro-8-quinolinamine], < 100 nM.
As for `CN(Cc1nc2ccccc2n1CC1CNC1)C1CCCc2cccnc21` (centres unmarked) [Example 10d, N-{[1-(3-Azetidinylmethyl)-1H-benzimidazol-2-yl]methyl}-N-methyl-5,6,7,8-tetrahydro-8-quinolinamine], the figure is < 100 nM; as for `CN(Cc1nc2ccccc2n1CCCN)C1CCCc2cccnc21` (centres unmarked) [Example 15b, N-{[1-(3-Aminopropyl)-1H-benzimidazol-2-yl]methyl}-N-methyl-5,6,7,8-tetrahydro-8-quinolinamine], < 100 nM; as for `CC(C)CN1CCC[C@H](Cn2c(CN(C)[C@H]3CCCc4cccnc43)nc3ccccc32)C1` [Example 44, (8S)—N-Methyl-N-[(1-{[(3S)-1-(2-methylpropyl)-3-piperidinyl]methyl}-1H-benzimidazol-2-yl)methyl]-5,6,7,8-tetrahydro-8-quinolinamine], < 100 nM.
As for `CN(C)CCCCCCn1c(CN(C)C2CCCc3cccnc32)nc2ccccc21` (centres unmarked) [Example 49, N-({1-[6-(Dimethylamino)hexyl]-1H-benzimidazol-2-yl}methyl)-N-methyl-5,6,7,8-tetrahydro-8-quinolinamine], the figure is 100 to 500 nM; as for `CC(C)CCNCCCn1c(CN(C)C2CCCc3cccnc32)nc2ccccc21` (centres unmarked) [Example 64, N-Methyl-N-[(1-{3-[(3-methylbutyl)amino]propyl}-1H-benzimidazol-2-yl)methyl]-5,6,7,8-tetrahydro-8-quinolinamine], < 100 nM; as for `CN(Cc1nc2ccccc2n1C[C@H]1CCCN(Cc2ccccn2)C1)[C@H]1CCCc2cccnc21` [Example 40, (8S)—N-Methyl-N-[(1-{[(3S)-1-(2-pyridinylmethyl)-3-piperidinyl]methyl}-1H-benzimidazol-2-yl)methyl]-5,6,7,8-tetrahydro-8-quinolinamine], < 100 nM.
As to `CN(Cc1nc2ccccc2n1CCCNS(C)(=O)=O)C1CCCc2cccnc21` (centres unmarked) [Example 63, N-[3-(2-{[Methyl(5,6,7,8-tetrahydro-8-quinolinyl)amino]methyl}-1H-benzimidazol-1-yl)propyl]methanesulfonamide], the IC50 lay in the range of 100 to 500 nM.
Under `CCCN(Cc1nc2ccccc2n1C[C@H]1CCCN(C)C1)[C@H]1CCCc2cccnc21` [Example 93, (8S)—N-[(1-{[(3S)-1-Methyl-3-piperidinyl]methyl}-1H-benzimidazol-2-yl)methyl]-N-propyl-5,6,7,8-tetrahydro-8-quinolinamine] stands < 100 nM; under `CN(Cc1nc2ccccc2n1CC(=O)NCCCN)C1CCCc2cccnc21` (centres unmarked) [Example 30, N-(3-Aminopropyl)-2-(2-{[methyl(5,6,7,8-tetrahydro-8-quinolinyl)amino]methyl}-1H-benzimidazol-1-yl)acetamide], 100 to 500 nM.
As for `CN(Cc1nc2ccccc2n1CC(=O)NCc1ccccn1)C1CCCc2cccnc21` (centres unmarked) [Example 33, 2-(2-{[Methyl(5,6,7,8-tetrahydro-8-quinolinyl)amino]methyl}-1H-benzimidazol-1-yl)-N-(2-pyridinylmethyl)acetamide], the figure is 100 to 500 nM.
Take `CN(C)CC(C)(C)CN1CCC[C@H](Cn2c(CN(C)[C@H]3CCCc4cccnc43)nc3ccccc32)C1` [Example 101, (8S)—N-{[1-({(3S)-1-[3-(Dimethylamino)-2,2-dimethylpropyl]-3-piperidinyl}methyl)-1H-benzimidazol-2-yl]methyl}-N-methyl-5,6,7,8-tetrahydro-8-quinolinamine]: the IC50 is < 100 nM.
`CN(Cc1nc2ccccc2n1CCCNS(=O)(=O)c1ccccc1)C1CCCc2cccnc21` (centres unmarked) [Example 62, N-[3-(2-{[Methyl(5,6,7,8-tetrahydro-8-quinolinyl)amino]methyl}-1H-benzimidazol-1-yl)propyl]benzenesulfonamide]: the IC50 is 100 to 500 nM.
As for `CN1CCC[C@H](Cn2c(CN(C)[C@@H]3CCCc4cccnc43)nc3ccccc32)C1` [Example 76, (8R)—N-Methyl-N-[(1-{[(3S)-1-methyl-3-piperidinyl]methyl}-1H-benzimidazol-2-yl)methyl]-5,6,7,8-tetrahydro-8-quinolinamine], the figure is 100 to 500 nM; as for `CN(Cc1nc2ccccc2n1C[C@H]1CCCN(Cc2ncc[nH]2)C1)[C@H]1CCCc2cccnc21` [Example 45, (8S)—N-[(1-{[(3S)-1-(1H-Imidazol-2-ylmethyl)-3-piperidinyl]methyl}-1H-benzimidazol-2-yl)methyl]-N-methyl-5,6,7,8-tetrahydro-8-quinolinamine], < 100 nM.
As for `CN(Cc1nc2ccccc2n1CCCN1CCOCC1)C1CCCc2cccnc21` (centres unmarked) [Example 57, N-Methyl-N-([1-[3-(4-morpholinyl)propyl]-1H-benzimidazol-2-yl]methyl)-5,6,7,8-tetrahydro-8-quinolinamine], the figure is 100 to 500 nM; as for `CC(C)N1CCC[C@@H]1CN1CCC[C@H](Cn2c(CN(C)[C@H]3CCCc4cccnc43)nc3ccccc32)C1` [Example 109, (8S)—N-Methyl-N-({1-[((3S)-1-{[(2R)-1-(1-methylethyl)-2-pyrrolidinyl]methyl}-3-piperidinyl)methyl]-1H-benzimidazol-2-yl}methyl)-5,6,7,8-tetrahydro-8-quinolinamine], 100 to 500 nM; as for `NCCCCn1c(CN(Cc2ccccc2)C2CCCc3cccnc32)nc2ccccc21` (centres unmarked) [Example 55, N-{[1-(4-Aminobutyl)-1H-benzimidazol-2-yl]methyl}-N-(Phenylmethyl)-5,6,7,8-tetrahydro-8-quinolinamine], 500 to 10000 nM.
For the compound `CN(Cc1nc2ccccc2n1CCCCNS(C)(=O)=O)C1CCCc2cccnc21` (centres unmarked) [Example 51, N-[4-(2-{[Methyl(5,6,7,8-tetrahydro-8-quinolinyl)amino]methyl}-1H-benzimidazol-1-yl)butyl]methanesulfonamide], the IC50 is 100 to 500 nM.
Under `CN(C)CC(C)(C)Cn1c(CN(C)C2CCCc3cccnc32)nc2ccccc21` (centres unmarked) [Example 67, N-({1-[3-(Dimethylamino)-2,2-dimethylpropyl]-1H-benzimidazol-2-yl}methyl)-N-methyl-5,6,7,8-tetrahydro-8-quinolinamine] stands < 100 nM; under `CN(Cc1nc2ccccc2n1C[C@H]1CCCN(Cc2nccs2)C1)[C@H]1CCCc2cccnc21` [Example 103, (8S)—N-Methyl-N-[(1-{[(3S)-1-(1,3-thiazol-2-ylmethyl)-3-piperidinyl]methyl}-1H-benzimidazol-2-yl)methyl]-5,6,7,8-tetrahydro-8-quinolinamine], 100 to 500 nM.

The values are drawn from patent publication US20080096861A1, “Chemical Compounds” (SMITHKLINE BEECHAM CORPORATION, priority 2004, published 2008).
